Type in all cases: in vivo, mouse
For data set [1], the system named is ovariectomy model mice. Put plainly: Forced swimming test, modified (Test Example 2). To be noted: oral for 14 days; for Immobility Time (second) Mean: 2 hours after last dose, 2nd minute to 4th minute, mean of 6 animals; for antidepressant effect: conclusion from Table 1 and FIG. 11. The procedure:
Test Example 1 was partly modified as below, and a forced swimming test was performed to evaluate an antidepressant effect using the compounds (DDA-7 and DDA-14 to DDA-16) prepared in Preparation Examples 3 to 6 as test compounds. Regarding DDA-14 and DDA-15, a naturally occurring racemic form thereof has been reported, and thus, similarly to the mixture ratio by weight thereof, DDA-14 and DDA-15 were mixed at the ratio of 3:1 and prepared (2E,9S+9R)-9-hydroxy-2-decenoic acid (racemic form).
The experimental animals (ovariectomy model mice), to which each test compound was administered for 14 days (the first day of the administration was the following day after the day the ovaries were removed), were forced to swim. A 0.32 mg amount of compound DDA-7, 0.29 mg and 0.088 mg of DDA-14 and DDA-15, respectively, and 0.29 mg of DDA-16 were each individually dissolved in 80 ml of ion exchange water for administration. On the 14th day from the day each test compound administration was commenced, and 2 hours after the test compound was orally administered, each of the experimental animals was placed into a water tank, and the swimming time was measured for 10 minutes (test group). As a control experiment, the same procedure was performed as above, except that distilled water for injection was orally administered in place of the test compounds to each of the experimental animals (ovariectomy model mouse) in an amount of 0.1 ml per 10 g of body weight (control group).
The ten-minute swimming time was divided into one-minute periods to conduct analysis.

Data set [2] has as its system ovariectomy model mice. Description: Forced swimming test (Test Example 1). On the procedure: A forced swimming test has been widely used in the preclinical assessment of the antidepressant effect, and clinically effective antidepressants are known to shorten the immobility time (Porsort et al., Nature, 266, 730-732, 1977).
Therefore, the D4-II-3E-4 fraction ((2E)-9,10-dihydroxy-2-decenoic acid) prepared in Preparation Example 1 was administered to the animal model to undergo a forced swimming test (Nature, 266:730-732, 1977), and the antidepressant effect of the compound was evaluated.
ICR female mice (9 weeks old; weight: 29 to 33 g) were used as experimental animals. All of the mice were group-housed (10 mice per cage), and the feed and white flake bedding were exchanged once per week. The surgery to remove the ovaries was performed according to the following method.
Under pentobarbital anesthesia (65 mg/kg, i.p.), a 5 mm incision was made in the dorsal abdomen of a mouse, and the ovaries was temporarily exposed to the outside of the body. After ligation between the ovaries and uterus end (i.e. oviducts), the ovaries were dissected. Thereafter, the oviducts were promptly returned to the intraperitoneal cavity, and the abdominal wall and the skin were sutured.
A 0.25 mg amount of the D4-II-3E-4 fraction (a freeze-dried product) prepared in Preparation Example 1 was dissolved in 50 ml of ion exchange water to prepare a suspension. […]
Water at a temperature of 25° C. was introduced into a clear measuring cylinder made of polycarbonate (inner diameter: 10 cm; height: 25 cm) so that the water surface level was adjusted to 10 cm from the bottom. Each mouse was forced to swim for 6 minutes while being recorded by a high-sensitivity video system. Thereafter, the recorded image was observed, and by means of an event recorder, the time (in seconds) during which the mouse was floating in an immobile state was measured (an analysis was made for the duration of the 4 minutes from the second minute onward).

Data set [3] concerns ovariectomy model mice. Put plainly: Uterus weight measurement after forced swimming test (Test Example 1). The following applies: dose that shortens the immobility time, wet weight, FIG. 9. On the procedure:
After conducting the forced swimming test (after completing the observation of the immobility time), an overdose of pentobarbital (100 mg/kg or more) was administered to each of the mice to cause them to stop breathing, and the mice were sacrificed. Then, the uterus was collected from each of the mice through an incision in the abdomen. The collected uterus was spread onto a filter paper, and after the serosa and blood vessel adhering to the uterus were removed, the weight of the uterus was promptly measured on a wet basis with an analytical balance.

This is an account of results in patent US8119839B2, “Carboxylic acid and antidepressant composition containing the same as active ingredient” (Yamada Apiculture Center, Inc., priority 2007, dated 2012).

As to `O=C(O)/C=C\CCCCC[C@@H](O)CO` [DDA-7, (2Z,9R)-9,10-dihydroxy-2-decenoic acid], in the data set with ovariectomy model mice [1], the “Immobility Time (second) Mean” value came to 80.14 s and the antidepressant effect result is “exhibit an antidepressant effect”.

For the compound `O=C(O)/C=C/CCCCCC(O)CO` (stereo not shown) [D4-II-3E-4 fraction, (2E)-9,10-dihydroxy-2-decenoic acid], the “immobility time compared with control group” value in the data set with ovariectomy model mice [2] (0.25 mg in 50 ml water, 0.1 ml per 10 g body weight orally once a day for 2 weeks, 4 minutes from the second minute onward, FIG. 8) is “significantly shorter”. In the data set with ovariectomy model mice [2] (oral, once a day for 2 weeks, conclusion from FIG. 8), the antidepressant effect result is “exhibits an antidepressant effect”. Also, the “uterus weight compared with control group” value with ovariectomy model mice [3] is reported as “a difference in the uterus weights was not recognized”.

For the compound `O=C(O)C=CCCCCCCCO` [10-hydroxydecenoic acid, reference compound], the antidepressant effect result in the data set on ovariectomy model mice [2] (oral 70, 140, 210 mg/kg/day, FIG. 10) was “does not exhibit an antidepressant effect”.

Regarding `CC(O)CCCCC/C=C/C(=O)O` (racemic) [DDA14 + DDA15, (2E,9S+9R)-9-hydroxy-2-decenoic acid], in the data set on ovariectomy model mice [1], the “Immobility Time (second) Mean” value came out at 98.82 s and the antidepressant effect entry is “exhibit an antidepressant effect”.

`CC(=O)OCCCC/C=C/C(=O)O` [DDA-16, (2E)-7-acetoxy-2-heptenoic acid]: in the data set with ovariectomy model mice [1], the “Immobility Time (second) Mean” value was found to be 87.14 s and the antidepressant effect entry is “exhibit an antidepressant effect”.
